Patent publication US11612165B2, “Pesticide composition for controlling Spodoptera frugiperda” (priority 2020, dated 2023)
Read-outs that look alike come from different tables or passages of the source.

Tested on: Spodoptera frugiperda
Test: Indoor toxicity test, immersion method, larvae mortality after 24 h
Format: in vivo
Conditions: single or mixed in different ratios, 3-day-old larvae, 25° C., read-out: LC50 (95% confidence limit)
Text: Pesticide for test: TC of tea saponin; TC of chlorantraniliprole; TC of tolfenpyrad;
Pest for test: Spodoptera frugiperda (2-3-day-old);
Test method: immersion method: calculating the dosage of the TC according to the active ingredients, preparing the TC into a mother solution, adding clear water to dilute the mother solution to 5-7 gradient concentrations, taking clear water treatment as a control, and setting 3 repetitions for each treatment; selecting 20 larvae with basically the same growth state, putting the larvae into an experiment barrel containing pesticide liquid, covering a gauze (to prevent escape), placing in a 25° C. incubator, investing the death situations after 24 h, recording the number of the dead larvae, and processing data by DPS statistical software.

| SMILES | LC50 (chlorantraniliprole (A) and tea saponin (B)) [µg/mL] | LC50 (tolfenpyrad (A) and tea saponin (B)) [µg/mL] |
| --- | --- | --- |
| CNC(=O)c1cc(Cl)cc(C)c1NC(=O)c1cc(Br)nn1-c1ncccc1Cl [Chlorantraniliprole (A), Chlorantraniliprole] | 0.283 | – |
| CCc1nn(C)c(C(=O)NCc2ccc(Oc3ccc(C)cc3)cc2)c1Cl [Tolfenpyrad (A), Tolfenpyrad] | – | 0.563 |
